Measured values taken from patent publication US5324648A, “Substituted isocoumarins as serine protease inhibitors and anti-inflammatory agents” (Georgia Tech Research Corporation, priority 1992, dated 1994).
Read-outs that look alike come from different tables or passages of the source.

Experiments:
bovine thrombin = target: T1, bovine thrombin (Bos taurus, UniProt P00735); test: Inactivation rate of bovine thrombin; type: biochemical; details: pH 7.5, 25° C, read-out: kobs/[I]
T1 construct: bovine thrombin
Protocol: (§1) Inactivation rates of serine proteases by substituted isocoumarins were measured by the incubation method. An aliquot of inhibitor (25 or 50 μl) in Me2 SO was added to a buffered enzyme solution (0.01-2.3 μM) to initiate the inactivation. Aliquots (50 μl) were withdrawn at various intervals and the residual enzymatic activity was measured. Me2 SO concentration in the reaction mixture was 8-12% (v/v). 0.1 Hepes, 0.01M CaCl2, pH 7.5 buffer was utilized for trypsin and coagulation enzymes. 0.1M Hepes, 0.5M NaCl, pH 7.5 was utilized for other serine proteases. The inhibitor concentrations are shown in all the tables. Peptide thioesters or peptide nitroanilides with appropriate sequence were used as substrates for various serine proteases. All peptide thioester hydrolysis rates were measured with assay mixtures containing 4,4'-dithiodipyridine (ε324 =19800M^-1 cm^-1; Grasetti & Murray, Arch. Biochem. Biophys. 119, pp 41-49 (1967)). Peptide 4-nitroanilide nitroanilide hydrolysis was measured at 410 nm (ε410 =8800M^-1 cm^-1; Erlanger et al., Arch. Biochem. Biophys. 95, pp 271-278 (1961)). First order inactivation rate constant (kobs) were obtained from plots of ln (vt /vo) vs time, and the correlation coefficients were greater than 0.98.
(§2) ^a Conditions were as 0.1M Hepes, 0.01M CaCl2, pH 7.5 and 8-12%
(§3) Me2 SO and 25° C. Rate constants were measured by incubation
(§4) method unless otherwise noted. An aliquot of inhibitor was added to an
(§5) enzyme solution and aliquots removed with time and assayed for remaining
(§6) enzymatic activity. Firstorder rate constants, kobs were obtained
(§7) from the plots of ln(vt /vo) versus time.
(§8) ^a Inhibition rates were measured in 0.1M Hepes, 0.01M CaCl2, pH
(§9) 7.5 buffer, 8% Me2 SO and at 25° C.

bovine factor Xa = target: T2, bovine factor Xa (Bos taurus, UniProt P00743); test: Inactivation rate of bovine factor Xa; type: biochemical; details: Table I; pH 7.5, 25° C; [I] 0.4 to 310 μM; read-out: kobs/[I]
T2 construct: bovine factor Xa
T2 sequence (P00743 234-492 limits assumed): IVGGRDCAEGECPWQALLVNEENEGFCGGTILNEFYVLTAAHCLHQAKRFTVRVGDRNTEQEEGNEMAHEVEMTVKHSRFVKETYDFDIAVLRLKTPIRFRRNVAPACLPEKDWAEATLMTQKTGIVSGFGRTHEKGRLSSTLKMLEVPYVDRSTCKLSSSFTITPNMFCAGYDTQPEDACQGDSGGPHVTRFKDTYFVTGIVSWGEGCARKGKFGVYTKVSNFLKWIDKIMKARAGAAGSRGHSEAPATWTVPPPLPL
T2 sequence (P00743 41-180 partner limits assumed): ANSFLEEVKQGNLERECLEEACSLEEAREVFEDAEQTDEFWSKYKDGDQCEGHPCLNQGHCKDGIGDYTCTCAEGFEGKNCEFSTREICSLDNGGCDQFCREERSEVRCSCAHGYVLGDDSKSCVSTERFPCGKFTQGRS

[1] = target: T3, porcine pancreatic kallikrein (Sus scrofa, UniProt P00752); test: Inactivation rate of porcine pancreatic kallikrein; type: biochemical; details: Table I; pH 7.5, 25° C; [I] 0.4 to 300 μM; read-out: kobs/[I]
T3 construct: from tissue; host or cells: porcine pancreas (from the name)
T3 sequence (P00752 8-246): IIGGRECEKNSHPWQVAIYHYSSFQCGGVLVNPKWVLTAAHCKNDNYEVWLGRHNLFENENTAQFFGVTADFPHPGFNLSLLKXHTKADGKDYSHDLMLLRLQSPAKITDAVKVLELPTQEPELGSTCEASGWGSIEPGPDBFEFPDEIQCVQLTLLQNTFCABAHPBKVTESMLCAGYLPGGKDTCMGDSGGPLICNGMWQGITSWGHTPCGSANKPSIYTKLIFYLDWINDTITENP

human plasma kallikrein = target: T4, human plasma kallikrein (Homo sapiens, UniProt P03952); test: Inactivation rate of human plasma kallikrein; type: biochemical; details: Table I; pH 7.5, 25° C; [I] 3 to 330 μM (footnote g); read-out: kobs/[I]
T4 construct: human plasma kallikrein; from tissue; host or cells: human plasma (from the name)
T4 sequence (P03952 391-638 limits assumed): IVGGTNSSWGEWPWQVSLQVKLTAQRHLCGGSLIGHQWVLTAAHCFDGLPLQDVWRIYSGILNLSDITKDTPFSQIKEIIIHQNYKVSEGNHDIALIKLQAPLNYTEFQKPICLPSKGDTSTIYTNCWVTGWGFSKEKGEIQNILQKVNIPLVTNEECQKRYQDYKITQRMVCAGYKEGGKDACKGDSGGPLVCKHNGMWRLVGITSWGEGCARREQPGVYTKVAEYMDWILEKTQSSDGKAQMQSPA
T4 sequence (P03952 20-390 partner limits assumed): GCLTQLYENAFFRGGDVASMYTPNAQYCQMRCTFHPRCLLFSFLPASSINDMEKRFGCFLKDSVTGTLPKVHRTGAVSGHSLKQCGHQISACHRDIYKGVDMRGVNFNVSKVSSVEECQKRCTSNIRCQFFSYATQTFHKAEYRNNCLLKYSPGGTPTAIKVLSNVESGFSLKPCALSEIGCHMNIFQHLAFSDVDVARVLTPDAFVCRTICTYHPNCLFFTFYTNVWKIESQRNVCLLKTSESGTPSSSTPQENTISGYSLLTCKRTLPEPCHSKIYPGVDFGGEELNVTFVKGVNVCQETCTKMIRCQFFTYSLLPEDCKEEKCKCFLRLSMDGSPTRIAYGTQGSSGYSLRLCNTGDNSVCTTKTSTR
Protocol: as §1, §2, §3, §4, §5, §6, §7

human factor XIa = target: T5, human factor XIa (Homo sapiens, UniProt P03951); test: Inactivation rate of human factor XIa; type: biochemical; details: pH 7.5, 25° C, read-out: kobs/[I]
T5 construct: human factor XIa
T5 sequence (P03951 388-625 limits assumed): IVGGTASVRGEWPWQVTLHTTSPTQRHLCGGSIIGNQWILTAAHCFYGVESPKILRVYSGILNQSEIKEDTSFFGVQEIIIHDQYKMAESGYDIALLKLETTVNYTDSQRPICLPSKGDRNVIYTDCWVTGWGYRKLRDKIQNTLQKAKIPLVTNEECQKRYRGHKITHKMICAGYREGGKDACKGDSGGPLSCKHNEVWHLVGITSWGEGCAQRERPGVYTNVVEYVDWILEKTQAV
T5 sequence (P03951 19-387 partner limits assumed): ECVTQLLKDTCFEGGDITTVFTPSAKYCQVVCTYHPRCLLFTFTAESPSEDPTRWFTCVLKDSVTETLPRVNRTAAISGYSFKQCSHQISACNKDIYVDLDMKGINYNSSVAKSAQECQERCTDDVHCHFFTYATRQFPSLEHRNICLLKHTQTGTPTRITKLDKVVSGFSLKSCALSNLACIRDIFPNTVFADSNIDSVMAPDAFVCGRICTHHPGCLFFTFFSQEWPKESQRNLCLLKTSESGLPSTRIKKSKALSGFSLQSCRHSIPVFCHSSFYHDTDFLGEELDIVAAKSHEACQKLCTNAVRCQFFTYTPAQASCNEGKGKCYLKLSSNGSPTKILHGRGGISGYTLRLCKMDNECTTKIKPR
Protocol: as §1, §2, §3, §4, §5, §6, §7, §8, §9

human factor XIIa = target: T6, human factor XIIa (Homo sapiens, UniProt P00748); test: Inactivation rate of human factor XIIa; type: biochemical; details: pH 7.5, 25° C, read-out: kobs/[I]
T6 construct: human factor XIIa
T6 sequence (P00748 373-615 limits assumed): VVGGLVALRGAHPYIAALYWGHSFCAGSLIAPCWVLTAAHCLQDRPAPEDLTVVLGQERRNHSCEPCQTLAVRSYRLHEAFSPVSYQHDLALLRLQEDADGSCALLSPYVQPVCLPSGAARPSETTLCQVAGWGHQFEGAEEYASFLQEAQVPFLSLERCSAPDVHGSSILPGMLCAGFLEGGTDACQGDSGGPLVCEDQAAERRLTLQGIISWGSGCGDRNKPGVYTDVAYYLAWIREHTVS
T6 sequence (P00748 20-372 partner limits assumed): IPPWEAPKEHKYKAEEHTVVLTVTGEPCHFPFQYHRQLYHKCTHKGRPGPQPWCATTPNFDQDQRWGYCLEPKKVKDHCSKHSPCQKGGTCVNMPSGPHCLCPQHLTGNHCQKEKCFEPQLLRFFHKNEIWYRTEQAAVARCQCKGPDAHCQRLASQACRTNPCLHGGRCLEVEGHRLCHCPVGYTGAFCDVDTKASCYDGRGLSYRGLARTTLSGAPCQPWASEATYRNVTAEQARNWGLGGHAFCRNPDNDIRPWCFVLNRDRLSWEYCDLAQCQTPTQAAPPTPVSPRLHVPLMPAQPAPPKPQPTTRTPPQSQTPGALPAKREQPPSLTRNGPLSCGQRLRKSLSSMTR
Protocol: as §1, §2, §3, §4, §5, §6, §7, §8, §9

bovine trypsin = target: T7, bovine trypsin (Bos taurus, UniProt P00760); test: Inactivation rate of bovine trypsin; type: biochemical; details: Table I; pH 7.5, 25° C; [I] 1 to 12 μM; read-out: kobs/[I]
T7 sequence (P00760 24-246): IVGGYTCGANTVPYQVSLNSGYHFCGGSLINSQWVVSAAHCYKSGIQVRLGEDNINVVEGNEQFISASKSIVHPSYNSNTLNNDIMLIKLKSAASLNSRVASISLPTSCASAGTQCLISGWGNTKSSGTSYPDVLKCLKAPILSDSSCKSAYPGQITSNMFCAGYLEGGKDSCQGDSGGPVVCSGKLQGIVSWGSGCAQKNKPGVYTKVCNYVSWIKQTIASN
Protocol: as §1, §2, §3, §4, §5, §6, §7, §8, §9

[2] = target: sheep lung lymph tryptase; test: Inactivation rate of sheep lung lymph tryptase; type: biochemical; details: Table III; pH 7.5, 25° C; [I] 10 to 460 μM
Protocol: Inactivation rates of serine proteases by substituted isocoumarins were measured by the incubation method. An aliquot of inhibitor (25 or 50 μl) in Me2 SO was added to a buffered enzyme solution (0.01-2.3 μM) to initiate the inactivation. Aliquots (50 μl) were withdrawn at various intervals and the residual enzymatic activity was measured. […] 0.1 Hepes, 0.01M CaCl2, pH 7.5 buffer was utilized for trypsin and coagulation enzymes. […] The inhibitor concentrations are shown in all the tables. Peptide thioesters or peptide nitroanilides with appropriate sequence were used as substrates for various serine proteases.
(§10) ^a Inactivation rates were measured at 0.1M Hepes, 0.5M NaCl, pH 7.5
(§11) buffer, 8% Me2 SO and 25° C.

[3] = target: T8, porcine pancreatic elastase (PPE) (Sus scrofa, UniProt P00772); test: Inactivation of porcine pancreatic elastase (PPE); type: biochemical
T8 construct: from tissue; host or cells: porcine pancreas (from the name)
T8 sequence (P00772 27-266): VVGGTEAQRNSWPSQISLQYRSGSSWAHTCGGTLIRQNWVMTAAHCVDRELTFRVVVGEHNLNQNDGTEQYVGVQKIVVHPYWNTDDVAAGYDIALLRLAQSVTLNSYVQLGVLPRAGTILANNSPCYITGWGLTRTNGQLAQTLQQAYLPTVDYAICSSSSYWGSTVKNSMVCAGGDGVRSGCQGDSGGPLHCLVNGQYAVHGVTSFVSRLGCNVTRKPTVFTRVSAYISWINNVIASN
Protocol: Inactivation rates of serine proteases by substituted isocoumarins were measured by the incubation method. An aliquot of inhibitor (25 or 50 μl) in Me2 SO was added to a buffered enzyme solution (0.01-2.3 μM) to initiate the inactivation. Aliquots (50 μl) were withdrawn at various intervals and the residual enzymatic activity was measured. Me2 SO concentration in the reaction mixture was 8-12% (v/v). 0.1 Hepes, 0.01M CaCl2, pH 7.5 buffer was utilized for trypsin and coagulation enzymes. 0.1M Hepes, 0.5M NaCl, pH 7.5 was utilized for other serine proteases. […] Peptide thioesters or peptide nitroanilides with appropriate sequence were used as substrates for various serine proteases. All peptide thioester hydrolysis rates were measured with assay mixtures containing 4,4'-dithiodipyridine (ε324 =19800M^-1 cm^-1 ; Grasetti & Murray, Arch. Biochem. Biophys. 119, pp 41-49 (1967)). Peptide 4-nitroanilide nitroanilide hydrolysis was measured at 410 nm (ε410 =8800M^-1 cm^-1 ; Erlanger et al., Arch. Biochem. Biophys. 95, pp 271-278 (1961)). First order inactivation rate constant (kobs) were obtained from plots of ln (vt /vo) vs time, and the correlation coefficients were greater than 0.98.
^a Inactivation rates were measured at 0.1M Hepes, 0.5 NaCl, pH 7.5,
8-12% Me2 SO and 25° C. by incubation method.
^a Inhibition rates were measured in 0.1M Hepes, 0.05M NaCl, pH 7.5
buffer, 8-9% Me2 SO and at 25° C.
^a Inhibition constants were in 0.1M Hepes, 0.5M NaCl, pH 7.5 buffer,
8-9% Me2 SO and at 25° C.
^a Inhibition rates were measured in 0.1M Hepes, 0.5M NaCl, 2.5%
Me2 SO, pH 7,5 and at 25° C.
^a Inhibition was measured in 0.1M Hepes, 0.5M NaCl, pH 7.5 buffer,
5-10% Me2 SO and at 25° C. Suc--Val--Pro--Phe--NA (0.48 mM)
was used as the substrate for chymotrypsin and cat G.
^a Inhibition rates were measured in 0.1M Hepes, 0.5M NaCl, pH 7.5

[4] = target: T9, human leukocyte elastase (HLE) (Homo sapiens, UniProt P08246); test: Inactivation of human leukocyte elastase (HLE); type: biochemical
T9 construct: from tissue; host or cells: human leukocytes (from the name)
T9 sequence (P08246 30-267): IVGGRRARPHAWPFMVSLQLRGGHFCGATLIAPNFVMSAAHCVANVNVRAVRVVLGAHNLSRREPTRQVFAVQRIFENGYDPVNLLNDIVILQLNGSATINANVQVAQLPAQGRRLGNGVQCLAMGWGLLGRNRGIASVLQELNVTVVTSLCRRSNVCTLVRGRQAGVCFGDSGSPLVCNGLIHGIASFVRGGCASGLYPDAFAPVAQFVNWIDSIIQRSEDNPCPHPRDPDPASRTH

chymotrypsin = chymotrypsin (Bos taurus, UniProt P00766); test: Inactivation of chymotrypsin; type: biochemical, bovine; details: pH 7.5, 25° C, read-out: kobs/[I]
cathepsin G = target: T10, cathepsin G (Homo sapiens, UniProt P08311); test: Inactivation of cathepsin G; type: biochemical
T10 construct: from tissue; host or cells: human leukocytes
T10 sequence (P08311 21-255): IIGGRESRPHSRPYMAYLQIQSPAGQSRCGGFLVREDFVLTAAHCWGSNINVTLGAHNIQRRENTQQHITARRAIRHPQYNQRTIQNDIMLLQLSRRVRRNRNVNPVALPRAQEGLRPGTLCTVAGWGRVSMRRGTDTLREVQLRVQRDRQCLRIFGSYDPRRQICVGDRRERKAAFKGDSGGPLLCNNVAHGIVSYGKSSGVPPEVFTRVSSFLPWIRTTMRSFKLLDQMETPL

[5] = Spontaneous hydrolysis in Hepes buffer; type: physicochemical; details: hepes buffer; 0.1 Hepes, 0.5M NaCl, pH 7.5, 9% Me2SO, 25° C; read-out: t1/2 for spontaneous hydrolysis
Protocol: ^a Conditions were 0.1 Hepes, 0.5M NaCl, pH 7.5 and 9% Me2 SO at
25° C. Spontaneous hydrolysis rates were measured
spectrophotometrically by monitoring the decrease in absorbance due to th
isocoumarin ring system (wavelength 335-380 nm) using the firstorder rate

human factor Xa = target: T11, human factor Xa (Homo sapiens, UniProt P00742); test: Inactivation rate of human factor Xa; type: biochemical; details: Table VIII; pH 7.5, 25° C; [I] 3.6-44 μM; read-out: kobs/[I]
T11 construct: human factor Xa
T11 sequence (P00742 235-488 limits assumed): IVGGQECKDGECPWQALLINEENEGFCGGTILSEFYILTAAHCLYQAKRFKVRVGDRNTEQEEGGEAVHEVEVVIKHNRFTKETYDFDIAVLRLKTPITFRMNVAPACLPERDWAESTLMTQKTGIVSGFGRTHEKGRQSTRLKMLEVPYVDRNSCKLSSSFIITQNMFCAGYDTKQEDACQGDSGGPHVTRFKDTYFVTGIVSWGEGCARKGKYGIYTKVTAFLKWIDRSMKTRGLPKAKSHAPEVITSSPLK
T11 sequence (P00742 41-179 partner limits assumed): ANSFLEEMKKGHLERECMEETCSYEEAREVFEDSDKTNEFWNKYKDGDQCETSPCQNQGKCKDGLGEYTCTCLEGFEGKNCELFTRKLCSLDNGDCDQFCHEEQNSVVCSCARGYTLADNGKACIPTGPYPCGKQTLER
Protocol: as §1, §2, §3, §4, §5, §6, §7, §8, §9

human thrombin = target: T12, human thrombin (Homo sapiens, UniProt P00734); test: Inactivation rate of human thrombin; type: biochemical; details: Table VIII; pH 7.5, 25° C; [I] 1.2-54 μM; read-out: kobs/[I]
T12 construct: human thrombin
Outline: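 Incubation method: enzyme (0.01-2.3 μM) mixed with inhibitor in 0.1M Hepes, 0.01M CaCl2, pH 7.5, 8% Me2SO, 25° C; residual activity sampled over time with peptide thioester or 4-nitroanilide substrates. kobs from ln(vt/vo) vs time plots.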

human lung tryptase = test: Inactivation rate of human lung tryptase; type: biochemical; details: Table IX; pH 7.5, 25° C; [I] 0.42-0.47 μM
Protocol: as §1, §10, §11, §8
(§12) 7.5 buffer for human plasmin; 25 mM Phosphate, 0.5M NaCl, 1 mM EDTA, pH
(§13) 7.5 buffer for rat skin tryptase and 0.1M Hepes, 0.5M NaCl, pH 7.5 for
(§14) human lung tryptase, human skin tryptase and rt-PA. All enzymes were
(§15) assayed with ZArg-SBzl (0.07 mM) in the presence of 4,4dithiodipyridine
(§16) (0.33 mM). Reaction mixtures contained 8% Me2 SO and assays were […]

rat skin tryptase = target: T13, rat skin tryptase (Rattus norvegicus, UniProt P27435); test: Inactivation rate of rat skin tryptase; type: biochemical; details: pH 7.5, Table IX; pH 7.5, 25° C; [I] 0.42-0.51 μM; read-out: kobs/[I]
T13 construct: from tissue; host or cells: rat skin
T13 sequence (P27435 29-273): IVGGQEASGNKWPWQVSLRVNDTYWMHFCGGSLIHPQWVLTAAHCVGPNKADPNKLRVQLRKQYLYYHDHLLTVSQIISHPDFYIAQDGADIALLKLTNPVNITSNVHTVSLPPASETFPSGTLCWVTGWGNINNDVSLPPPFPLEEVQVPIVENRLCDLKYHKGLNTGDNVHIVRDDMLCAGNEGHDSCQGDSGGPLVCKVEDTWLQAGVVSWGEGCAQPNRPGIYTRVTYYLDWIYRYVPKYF
Protocol: as §1
^b Inactivation rates were measured at 25 mM phosphate, 0.5M NaCl, 1
mM EDTA, pH 7.5 buffer, 9% Me2 SO and 25° C.
as §8, §12, §13, §14, §15, §16

[6] = target: recombinant human tissue plasminogen activator (Homo sapiens, UniProt P00750); test: Inactivation rate of recombinant human tissue plasminogen activator; type: biochemical; details: pH 7.5, Table IX; pH 7.5, 25° C; [I] 3.5-5.0 μM; read-out: kobs/[I]
Chain of recombinant human tissue plasminogen activator (P00750 36-562): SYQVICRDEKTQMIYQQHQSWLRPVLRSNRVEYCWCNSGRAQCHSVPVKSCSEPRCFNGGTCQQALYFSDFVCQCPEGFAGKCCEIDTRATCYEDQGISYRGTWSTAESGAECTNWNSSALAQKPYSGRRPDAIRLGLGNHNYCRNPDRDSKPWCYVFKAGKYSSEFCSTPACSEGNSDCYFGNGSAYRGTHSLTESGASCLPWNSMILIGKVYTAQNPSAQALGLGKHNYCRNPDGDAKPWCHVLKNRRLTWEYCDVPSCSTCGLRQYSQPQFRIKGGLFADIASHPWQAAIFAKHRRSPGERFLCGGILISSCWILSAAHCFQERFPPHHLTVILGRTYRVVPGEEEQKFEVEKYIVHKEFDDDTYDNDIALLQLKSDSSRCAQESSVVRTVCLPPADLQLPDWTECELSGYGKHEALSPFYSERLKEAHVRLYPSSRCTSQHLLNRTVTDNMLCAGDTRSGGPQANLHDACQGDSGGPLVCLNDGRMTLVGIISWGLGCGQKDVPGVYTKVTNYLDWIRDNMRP
Protocol: as §1
^a Inactivation constants were measured at 0.1M Hepes, 0.5M NaCl (or
as §8, §12, §13, §14, §15, §16

pig plasma [7] = test: Prothrombin time (PT), pig plasma; details: [I] 32 μM
pig plasma [8] = test: Activated partial thromboplastin time (APTT), pig plasma; details: [I] 32 μM

With CCOc1cc2ccc(NC(=N)N)cc2c(=O)o1 [7-guanidino-3-ethoxyisocoumarin] the kinact/KI (bovine thrombin; Table I, [I] 0.3 to 400 μM) was 3700 M⁻¹ s⁻¹, the kinact/KI (bovine factor Xa) was 2700 M⁻¹ s⁻¹ and the kinact/KI [1] was 16000 M⁻¹ s⁻¹. For the same compound, the kinact/KI (human plasma kallikrein) was 44000 M⁻¹ s⁻¹, the kinact/KI (human factor XIa; Table I, [I] 3 to 330 μM) was 3100 M⁻¹ s⁻¹ and the kinact/KI (human factor XIIa; Table I, [I] 3 to 330 μM) was 1300 M⁻¹ s⁻¹. For the same compound, the kinact/KI (bovine trypsin) was 20000 M⁻¹ s⁻¹, the “kobs/[I]” value [2] was 150 M⁻¹ s⁻¹ and the kinact/KI ([3]; Table IV, pH 7.5, 25° C, [I] 0.01 to 0.51 mM, read-out: kobs/[I]) was 86 M⁻¹ s⁻¹. The kinact/KI ([4]; Table IV, pH 7.5, 25° C, [I] 0.001 to 0.18 mM, read-out: kobs/[I]) was 1900 M⁻¹ s⁻¹, the kinact/KI (chymotrypsin; Table IV, [I] 0.004 to 0.33 mM) was 990 M⁻¹ s⁻¹ and the inhibition at 47 µM (cathepsin G; Table IV, not time dependent, at 47 μM) was 87%. The half-life [5] was 2.27 h.
For N=C(N)SCCOc1oc(=O)c2cc(NC(=O)NCc3ccccc3)ccc2c1Cl [PhCH2 NHCONH-CiTEtOIC, 7-(benzylcarbamoylamino)-4-chloro-3-(2-isothiureidoethoxy)isocoumarin], the kinact/KI (bovine thrombin; Table VIII, [I] 1.2-54 μM) was 16800 M⁻¹ s⁻¹, the kinact/KI (human factor Xa) was 2340 M⁻¹ s⁻¹ and the kinact/KI (human factor XIa; Table VIII, [I] 0.7-0.8 μM) was 105000 M⁻¹ s⁻¹. For the same compound, the kinact/KI (human factor XIIa; Table VIII, [I] 3.6-4.9 μM) was 45000 M⁻¹ s⁻¹, the kinact/KI (human thrombin) was 11700 M⁻¹ s⁻¹ and the “kobs/[I]” value (human lung tryptase) was 280,000 M^-1 s^-1. The kinact/KI (rat skin tryptase) was 200000 M⁻¹ s⁻¹, the kinact/KI [6] was 19000 M⁻¹ s⁻¹ and the PT (pig plasma [7]) was 31.1 s. For the same compound, the APTT (pig plasma [8]) was over 120 s.
In the case of C[C@@H](NC(=O)Nc1ccc2c(Cl)c(OCCSC(=N)N)oc(=O)c2c1)c1ccccc1 [R-C6 H5 (CH3)CHNHCONH-CiTEtOIC, 7-((R)-α-methylbenzylcarbamoylamino)-4-chloro-3-(2-isothiureidoethoxy)isocoumarin], the kinact/KI (bovine thrombin; Table VIII, [I] 1.2-54 μM) is reported as 29500 M⁻¹ s⁻¹, the kinact/KI (human thrombin) is reported as 12000 M⁻¹ s⁻¹ and the percentage of inhibition ([3]; Table X, after 20 min incubation) is reported as 9%. The percentage of inhibition ([4]; Table X, after 5 min incubation) was 40%, the kinact/KI (chymotrypsin; Table X, [I] 0.9-43 μM) was 360 M⁻¹ s⁻¹ and the kinact/KI (cathepsin G; Table X, pH 7.5, 25° C, [I] 33-46 μM, read-out: kobs/[I]) was 145 M⁻¹ s⁻¹. For the same compound, the PT (pig plasma [7]) was 26.2 s and the APTT (pig plasma [8]) was over 120 s.
